BindingDB's records for doi:10.1124/jpet.105.099705 (Meiji Seika Kaisha, 2006)
Where a name gives a salt, the structure may show the parent alone.

Assays:
[1] = target: T1, Neuropeptide Y receptor type 5 (Homo sapiens, UniProt Q15761)
T1 sequence (Q15761 whole entry): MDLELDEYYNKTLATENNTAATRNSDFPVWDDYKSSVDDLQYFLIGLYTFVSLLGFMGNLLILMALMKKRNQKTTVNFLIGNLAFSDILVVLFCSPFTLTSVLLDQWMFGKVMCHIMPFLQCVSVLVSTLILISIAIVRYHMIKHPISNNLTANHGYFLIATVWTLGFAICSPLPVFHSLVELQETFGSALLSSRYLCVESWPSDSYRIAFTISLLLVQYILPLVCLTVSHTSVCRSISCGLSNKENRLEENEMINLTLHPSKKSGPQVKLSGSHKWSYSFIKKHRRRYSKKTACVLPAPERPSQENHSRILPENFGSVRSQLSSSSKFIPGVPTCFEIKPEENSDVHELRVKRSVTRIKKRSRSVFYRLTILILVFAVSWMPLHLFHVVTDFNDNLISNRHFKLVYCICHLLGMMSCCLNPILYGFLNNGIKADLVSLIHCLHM

[2] = target: T2, Neuropeptide Y receptor type 2 (Homo sapiens, UniProt P49146)
T2 sequence (P49146 whole entry): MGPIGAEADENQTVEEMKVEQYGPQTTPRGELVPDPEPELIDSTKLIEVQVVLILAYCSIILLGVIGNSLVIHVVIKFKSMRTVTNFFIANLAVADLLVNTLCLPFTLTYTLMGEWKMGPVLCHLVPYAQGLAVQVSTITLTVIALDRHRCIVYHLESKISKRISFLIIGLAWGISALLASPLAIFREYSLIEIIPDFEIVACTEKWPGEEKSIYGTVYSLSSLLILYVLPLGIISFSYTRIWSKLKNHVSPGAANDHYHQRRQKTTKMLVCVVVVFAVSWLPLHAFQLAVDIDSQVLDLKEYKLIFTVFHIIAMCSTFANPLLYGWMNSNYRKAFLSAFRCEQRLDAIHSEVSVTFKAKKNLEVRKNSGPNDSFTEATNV

[3] = target: T3, Neuropeptide Y receptor type 1 (Homo sapiens, UniProt P25929)
T3 sequence (P25929 whole entry): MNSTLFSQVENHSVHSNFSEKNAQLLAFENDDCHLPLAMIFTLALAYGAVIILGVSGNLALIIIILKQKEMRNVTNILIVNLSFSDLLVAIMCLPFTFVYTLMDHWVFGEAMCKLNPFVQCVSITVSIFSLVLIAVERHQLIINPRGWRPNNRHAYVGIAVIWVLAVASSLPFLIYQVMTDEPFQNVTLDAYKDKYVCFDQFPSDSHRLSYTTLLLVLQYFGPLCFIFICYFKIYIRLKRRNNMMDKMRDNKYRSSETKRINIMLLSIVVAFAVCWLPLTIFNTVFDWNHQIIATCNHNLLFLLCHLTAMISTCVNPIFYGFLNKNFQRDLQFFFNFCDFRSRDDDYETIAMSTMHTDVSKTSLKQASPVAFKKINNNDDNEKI

With `CC(C)n1c2c(c3cc(NC(=O)N(C)CCc4ccncc4)ccc31)CCCC2` [3-(5,6,7,8-tetrahydro-9-isopropyl-carbazol-3-yl)-1-methyl-1-(2-pyridin-4-yl-ethyl)-ureanbsphydrochloride] as the compound, how does the IC50 [1] read?
The IC50 was 4.3 nM.

And the IC50 [2]?
The IC50 was over 10000 nM.

`CC1(C)CC(=O)C(C2C3=C(CC(C)(C)CC3=O)Oc3ccccc32)C(=O)C1` (stereo not given) [CAS_6508-43-6] was tested. Which IC50 [1] did it give?
The IC50 was 25 nM.

What about the IC50 [2] of the same compound?
The IC50 was over 10000 nM.

And the IC50 [3]?
The IC50 was over 10000 nM.
